Earlier results on one molecule are cited in patent US20220305028A1, “METHOD FOR PREPARING A LIPOSOMAL COMPOSITION COMPRISING LATANOPROST, AND THE PHARMACOLOGICALLY ACTIVE LIPOSOMAL COMPOSITION FOR OPHTHALMOTHERAPY PREPARED BY THIS METHOD” (CONSORTIUM "UKRINDUSTRY", priority 2021, published 2022).

For the data set the following is noted: aqueous ophthalmic drops.

Take `CC(C)OC(=O)CCC/C=C\C[C@@H]1[C@@H](CC[C@@H](O)CCc2ccccc2)[C@H](O)C[C@@H]1O` [latanoprost, Latanoprost]: the “penetration of the latanoprost from the drops through a corneal epithelium” value is “not more than 5 % of the administered amount”.
